According to US20240197722A1, “ANTICANCER COMPOSITION INDUCING CELL SENESCENCE AND CELL DEATH” (OSTEONEUROGEN INC., priority 2021, published 2024):

Assays:
A549 cells [1] = assay: Immunocytochemistry for cell senescence morphology in A549 cells; format: cell-based; settings: A549, 20 μM each, 72 hours, FIG. 1
Method: The cells were incubated with Rhodamine Phalloidin (Thermo Fisher, Massachusetts, US) for 4 hours at room temperature. After washing, the cells were incubated with Alexa Fluor 488 (Abcam, Cambridge, UK)-conjugated secondary antibody. Images were analyzed by using EVOS M7000 (Invitrogen, CA, USA). Nuclei were counterstained with DAPI.

A549 cells [2] = assay: Immunocytochemistry of p53, p21 and p16 in A549 cells; format: cell-based
Method: A549 cell line was treated with 1, 5, 10 and 20 μM of the compound of the present invention (ONG41008), respectively, and after 24 or 72 hours, the cells were fixed by using 4% paraformaldehyde, permeabilized with 0.4% TritonX100 and blocked with 1% BSA. The cells were incubated with Anti-p53 (Cell Signaling Technology, Beverly, MA), Anti-p21 (Abcam, Cambridge, UK) and Anti-p16-INK4A (Proteintech, IL, USA) at room temperature for 4 hours. After washing, the cells were incubated with Alexa Fluor 488 (Abcam, Cambridge, UK)-conjugated secondary antibody. Images were analyzed by using EVOS M7000 (Invitrogen, CA, USA). Nuclei were counterstained with DAPI.

A549 cells [3] = assay: Western blot of p53, phospho-p53, p21 and p16 in A549 cells; format: cell-based
Method: After 24 hours, the cell lysates were clarified by centrifugation at 14,000×g for 10 minutes, and the supernatant was collected. Protein concentration was quantified by Bradford assay (Thermo Fisher, Massachusetts, USA). Afterwards, 25 μg of cellular protein was loaded onto a 10% SDS-PAGE gel and transferred to a nitrocellulose membrane. After blocking with 5% BSA, the membrane was incubated overnight at 4° C. with Anti-p53 (Cell Signaling Technology, Beverly, MA), Anti-phosphor-p53 (Cell Signaling Technology, Beverly, MA), Anti-p21 (Abcam, Cambridge, UK), Anti-p16-INK4A (Proteintech, IL, USA) and Anti-GAPDH (Abcam, Cambridge, UK). After thorough washing, the membrane was incubated with HRP-conjugated secondary antibody. Protein bands were visualized by using ECL reagent (Abfrontier, Korea) and Uvitec HD9 (UVITEC, UK).

A549 cells [4] = assay: Cell changes of TGFβ-stimulated A549 cells; format: cell-based; settings: TGFβ-stimulated A549, 10 μM
A549 cells [5] = assay: Immunocytochemistry for cell senescence and multinucleation of A549 cells over time; format: cell-based; settings: A549, 10 μM
Text: ZEB1, which is an epithelial-mesenchymal transition (EMT) positive regulator, was used as an expression control.

A549 cells [6] = assay: PI staining cell cycle analysis of A549 cells; format: cell-based; settings: A549, 50 μM
Method: After 24 hours, the cells were harvested and fixed in cooled 70% ethanol, and then stained with propidium iodide containing 200 ug/mL RNase (Abcam, 139418) in the dark at 37° C. for 30 minutes. Each phase of the cell cycle was identified by using Accuri C6 Plus (BD Bioscience).

A549 cells [7] = assay: NAD+/NADH colorimetric assay in A549 cell lysates; format: cell-based
Method: To this end, total NAD was extracted and quantified from A549 cell lysates by using the NAD+/NADH Colorimetric Assay Kit (Abcam, ab65348) according to the manufacturer's protocol. 1×10^6 cells were lysed in 400 μL NAD/NADH extraction buffer, filtered through a 10 kD spin column (ab93349) and measured in pure water or 1/5 dilution. Briefly, the amount of total NAD was calculated by dividing the standard curve (pmol) by the sample volume (μL) added to the reaction wells and multiplying by the dilution factor.

A549 cells [8] = assay: Intracellular ROS (H2DCFDA) in A549 cells; format: cell-based; settings: A549, various concentrations, 24 hours
Method: To this end, 1×10^4 cells/mL of A549 cells were dispensed in 96-well plates, and after 24 hours, the cells were treated with 10 μM H2DCFDA (Invitrogen, CA) and incubated at 37° C. in the dark for 1 hour. […] Intracellular ROS were examined by fluorescence microscopy (Thermo, MA) and quantified by fluorescence spectroscopy (Perkin Elmer, MA).

H1299 cells = assay: Immunocytochemistry for multinucleation of H1299 cells; format: cell-based; settings: H1299, treated by concentration
PANC1 = assay: CCK-8 cell proliferation assay in PANC1 cells; format: cell-based, human
PANCI cells = assay: Immunocytochemistry for multinucleation of PANC1 cells; format: cell-based, human; settings: PANC1, treated by concentration
MCF7 cells = assay: Immunocytochemistry for multinucleation of MCF7 cells; format: cell-based, human; settings: MCF7, treated by concentration
PC3 cells = assay: Caspase-3/7 activity (apoptosis) in PC3 cells; format: cell-based, human; settings: PC3, Caspase-3/7 activity
Method: Caspase-3/7 activity was measured by using a Caspase-3/7 assay kit (Promega, G8091). […] Afterwards, Caspase-3/7 activity was analyzed according to the manufacturer's protocol.

[9] = test system: Normal human lung fibroblasts (NHLF); assay: CCK-8 cell proliferation assay in normal human lung fibroblasts; format: cell-based; settings: CCK-8, FIG. 19
normal cells = assay: Additional Caspase3/7 analysis in normal cells; format: cell-based, human; settings: data not shown
A549 cells [10] = assay: Mitochondrial membrane potential (TMRE) analysis in A549 cells
[11] = A549, mitochondrial membrane potential analysis

COc1ccc(-c2cc(=O)c3c(O)c(OC)c(OCCN4CCNC(=O)C4)cc3o2)cc1OC [ONG41008]
cell flatness (morphological change of cell senescence) (A549 cells [1]): specifically observed | TP53 nuclear localization (A549 cells [2]; A549, 1 μM, 24 hours): nuclear localization was observed | TP53 protein expression level (A549 cells [2]; A549, 1 μM, 24 hours): not changed | p16 expression (A549 cells [2]; A549, 1, 5, 10 and 20 μM, 24 hours): up-regulated in proportion to the concentration | p21 expression and localization (A549 cells [2]; A549, 24 hours): nuclear localized with upregulation | p16 induction (A549 cells [3]; A549, 24 hours): induced in a concentration-dependent manner | p21 induction (A549 cells [3]; A549, 24 hours): induced in a concentration-dependent manner | total amount of TP53 (A549 cells [3]; A549, 24 hours): maintained to be the same | TP53 phosphorylation (A549 cells [3]; A549, various concentrations, 24 hours): phosphorylated in proportion to the increase in the concentration | day from which a significant portion of cells started to die (A549 cells [4]): 6 days | day on which complete apoptosis was induced (A549 cells [4]): 15 days | time of treatment with the greatest number of multinucleation (A549 cells [5]): 48 h | cell flattening (A549 cells [5]; 24 hours): clearly confirmed | multinucleation (A549 cells [5]; 24 hours): multinucleation was also observed | cell cycle arrest (A549 cells [6]): arrest of the G1-S-G2 phase | NAD biosynthesis (A549 cells [7]; A549): increased | NAD/NADH ratio (change) (A549 cells [7]; A549, FIG. 7c): significantly increased | ROS (A549 cells [8]): increased in a concentration-dependent manner | multinucleation (H1299 cells): observed | IC50 (PANC1; Homo sapiens, PANC-1, PANC1, CCK-8, 72 hours): 11.8 µM | inhibitory effect on proliferation compared to paclitaxel (PANC1; PANC1, 10 μM or more): more excellent inhibitory effect | multinucleation (PANCI cells): observed | multinucleation (MCF7 cells): observed | EC50 (PC3 cells; Homo sapiens, PC-3): 20.4 µM | PC3 apoptosis (PC3 cells; various concentrations): induced PC3 apoptosis in a concentration-dependent manner | cell proliferation of normal cells [9]: did not inhibit cell proliferation | caspase3/7 activity in normal cells (normal cells): did not induce caspase3/7 activity | difference between IC50 of SAHA and ONG41008 (A549 cells [10]; A549, FIG. 6): ~20 fold | day until which inhibitory effect increased, all cells removed (A549 cells [10]; [11]): 4 days | time at which decrease of cell viability / inhibitory effect started (A549 cells [10]; [11]): 48 h
